Experimental findings from patent US8188277B2, “Aromatic compounds for suppressing the generation of collagen” (Otsuka Pharmaceutical Co., Ltd., priority 2004, dated 2012) are described below.

By IC50 is commonly meant the concentration that gives 50% inhibition. One may read the melting point as the temperature, or range, at which the solid turns liquid.

The test system of series [1] is LI90 cells, a human stellate cell line. Description: Collagen synthesis inhibition (3H-proline incorporation) in TGF-β1-stimulated LI90 cells. The series is classed as cell-based. Particulars: 10 pM h-TGF-β1, 16 hours with test compound, 3H-proline labelling 24 hours, concentration at which T/C = 0.5, read-out: Collagen synthesis inhibitory activity IC50. Here is the method:
The cultured cells were then washed with D-PBS(−) (DULBECCO's phosphate buffered saline), and subsequently further cultured for 3 days in MEM (Eagle's minimum essential medium) supplemented with 0.1% fetal bovine serum. The cultured cells were again washed with D-PBS(−), and cultured for 16 hours in MEM (0.1% fetal bovine serum with respect to a total MEM volume) which contained a test compound and 10 pM h-TGF-β1 (human transforming growth factor β1). Next, the cultured LI90 cells were washed with D-PBS(−), and cultured for 24 hours in MEM containing ^3H-proline (radioactive labelled compound) and 0.25 mM ascorbic acid. The produced collagen was labelled with RI (radioactive isotope). From this culture supernatant, an acid-soluble fraction was extracted. Radioactivity was measured for this fraction. The measured value was taken to be the collagen synthesis activity.
Radioactivity of the culture supernatant cultured with the test compound was compared with that of the culture supernatant cultured without the test compound to calculate a collagen synthesis inhibitory activity (T/C) and determine a concentration (μM) at which collagen synthesis was inhibited by 50% (IC50=a concentration of the test compound at which T/C corresponded to 0.5). T/C=(Radioactivity of culture supernatant cultured with the test compound)/(radioactivity of culture supernatant cultured without the test compound)

The structures appear in SMILES notation. Read-outs that look alike come from different tables or passages of the source.

`O=C(Nc1ccc(Oc2ccc(N3CCC(CC(=O)N4CCN(Cc5ccc6c(c5)OCO6)CC4)CC3)cc2)nc1)c1ccc(C(F)(F)F)cc1` [Example No. 319, N-[6-(4-{4-[2-(piperonyl-piperazin-1-yl)-2-oxoethyl]piperidin-1-yl}phenoxy)-pyridin-3-yl]-4-trifluoromethylbenzamide]: the IC50 in series [1] was 1.9 nM.
For the compound `O=C(Nc1ccc(Oc2ccc(CCC(=O)N3CCN(Cc4ccc5c(c4)OCO5)CC3)cc2)nc1)c1ccc(C(F)(F)F)cc1` [Example No. 1039, N-(6-{4-[3-(4-piperonylpiperazin-1-yl)-3-oxopropyl]phenoxy}pyridin-3-yl)-4-trifluoromethylbenzamide], the IC50 in series [1] (Homo sapiens) was determined as 22 nM.
Same read-out and setting: the value for `Cc1cc(N(C)CC(=O)N2CCN(Cc3ccc4c(c3)OCO4)CC2)ccc1Oc1ccc(NC(=O)c2ccc(C(F)(F)F)cc2)cn1` [Example No. 1503, N-[6-(4-{[2-(4-piperonylpiperazin-1-yl)-2-oxoethyl]methylamino}-2-methylphenoxy)pyridin-3-yl]-4-trifluoromethylbenzamide] was 7.8 nM; that for `O=C(Nc1ccc(Cl)c(Cl)c1)c1ccc(Oc2ccc(CCC(=O)N3CCN(Cc4ccc5c(c4)OCO5)CC3)cc2)nc1` [Example No. 2100, 6-{4-[3-(4-piperonylpiperazin-1-yl)-3-oxopropyl]phenoxy}-N-(3,4-dichlorophenyl)nicotinamide] was 79 nM.
Regarding `O=C(Nc1ccc(Oc2ccc(N3CCN(C(=O)COc4ccccc4)CC3)cc2)cc1)c1ccc(Cl)c(Cl)c1` [compound 2052], the melting point was 171 to 173 °C.
`O=C(Nc1ccc(Oc2ccc(N3CCN(C(=O)c4ccc5c(c4)OCO5)CC3)cc2)cc1)c1ccc(Cl)c(Cl)c1` [compound 2053] came in with a melting point of 116 to 118 °C.
In turn, `Cc1cc(N(C)CC(=O)N2CCN(C(=O)c3ccc4c(c3)OCO4)CC2)ccc1Oc1ccc(NC(=O)c2ccc(Cl)c(Cl)c2)cn1` [compound 2054] registered a melting point of 133 to 135 °C.
Consider `CC(=O)N(c1ccc(CCC(=O)N2CCN(Cc3ccc4c(c3)OCO4)CC2)cc1)c1ccc(NC(=O)c2ccc(Cl)c(Cl)c2)cn1` [compound 2099, N-[6-(Acetyl{4-[3-oxo-3-(4-piperonylpiperazin-1-yl)propyl]phenyl}amino)pyridin-3-yl]-3,4-dichlorobenzamide], for which the melting point fell in the range of 150 to 165 °C.
Turning to `O=C(Nc1ccc(Oc2ccc(C3=CCN(CCCn4ccnc4)CC3)cc2)cc1)c1ccc(Cl)c(Cl)c1` [compound 2486, 3,4-Dichloro-N-(4-{4-[1-(3-imidazole-1-ylpropyl)-1,2,3,6-tetrahydropyridine-4-yl]phenoxy}phenyl)-benzamide], the melting point lay in the range of 169 to 171 °C.
`O=C(Nc1ccc(Oc2ccc(N3CCN(C(=O)CN4CCOCC4)CC3)cc2)cc1)c1ccc(Cl)c(Cl)c1` [compound 2559]: the melting point fell in the range of 177 to 178 °C.
Same read-out and setting: to `O=C(CN1CCOCC1)c1ccc(Oc2ccc(NC(=O)c3ccc(Cl)c(Cl)c3)cc2F)cc1` [compound 2563] belongs 177 to 178 °C.
Take `O=C(Nc1ccc(Oc2ccc(C3=CCN(C(=O)CN4CCOCC4)CC3)cc2)cc1)c1ccc(Cl)c(Cl)c1` [compound 2565]: the melting point was in the range of 195 to 197 °C.
As to `CN(C(=O)CN1CCOCC1)C1CCN(c2ccc(Oc3ccc(NC(=O)c4ccc(Cl)c(Cl)c4)cc3)cc2)CC1` [compound 2572], the melting point lay within 157 to 160 °C.
On the same count and under the same terms, the value for `O=C(Nc1ccc(Oc2ccc(C(O)CN3CCOCC3)cc2)c(F)c1)c1ccc(Cl)c(Cl)c1` (centres unmarked) [compound 2677] was 142 to 145 °C; that for `CCN(CC(=O)N1CCN(Cc2ccc3c(c2)OCO3)CC1)c1ccc(Oc2ccc(NS(=O)(=O)c3ccc(Cl)c(Cl)c3)cn2)c(F)c1` [compound 2695, N-[6-(4-{[2-(4-piperonylpiperazin-1-yl)-2-oxoethyl]ethylamino}-2-fluorophenoxy)pyridin-3-yl]-3,4-dichlorobenzenesulfonamide] was 163 to 166 °C; that for `Cc1cc(N2CCC(CC(=O)N3CCN(Cc4ccc5c(c4)OCO5)CC3)CC2)ccc1Oc1ccc(NS(=O)(=O)c2ccc(C(F)(F)F)cc2)cn1` [compound 2703, N-[6-(4-{4-[2-(4-piperonylpiperazin-1-yl)-2-oxoethyl]piperidin-1-yl}-2-methylphenoxy)pyridin-3-yl]-4-trifluoromethylbenzenesulfonamide] was 156 to 158 °C.
Same read-out and setting: the value for `O=C(C1CCN(c2ccc(Oc3ccc(NS(=O)(=O)c4ccc(Cl)c(Cl)c4)cn3)cc2)CC1)N1CCN(Cc2ccccc2)CC1` [compound 2710, N-(6-{4-[4-(4-benzylpiperazine-1-carbonyl)piperidin-1-yl]phenoxy}pyridin-3-yl)-3,4-dichlorobenzenesulfonamide] was 185 to 189 °C; that for `Cc1cc(N(C)CC(=O)N2CCN(Cc3ccc4c(c3)OCO4)CC2)ccc1Oc1ccc(NC(=O)c2ccc(-n3cccc3)cc2)cn1` [compound 2711, N-[6-(4-{[2-(4-piperonylpiperazin-1-yl)-2-oxoethyl]methylamino}-2-methylphenoxy)pyridin-3-yl]-4-pyrrole-1-ylbenzamide] was 163.1 to 166.5 °C; that for `CCN(CC(=O)N1CCN(Cc2ccc3c(c2)OCO3)CC1)c1ccc(Oc2ccc(NS(=O)(=O)c3ccc(C(F)(F)F)cc3)cn2)c(F)c1` [compound 2712, N-[6-(4-{[2-(4-piperonylpiperazin-1-yl)-2-oxoethyl]ethylamino}-2-fluorophenoxy)pyridin-3-yl]-4-trifluoromethylbenzenesulfonamide] was 177.8 to 180.1 °C.
The same measure, in the same setting: the value for `O=C(Nc1ccc(Oc2ccc(C(O)CN3CCOCC3)cc2)c(F)c1)c1ccc(Cl)c(Cl)c1` (centres unmarked) [compound 2715, 3,4-dichloro-N-{3-fluoro-4-[4-(1-hydroxy-2-morpholine-4-ylethyl)phenoxy]phenyl}benzamide] was 169 to 170 °C.
